In US20260327240A1, “1,4-CINEOLE DERIVATIVE AND INTERMEDIATE THEREOF, HERBICIDE CONTAINING SAID DERIVATIVE AS ACTIVE INGREDIENT, METHOD FOR USING HERBICIDE, AND METHOD FOR PREPARING AGROCHEMICAL COMPOSITION” (HOKKO CHEMICAL INDUSTRY CO., LTD., priority 2023, published 2026):

Columns and labels:
Assay type in all cases: in vivo
[1] = system: Echinochloa crus-galli var. formosensis; assay: Test Example 1: herbicidal effect test by soil application in paddy rice; settings: 120 g per 10 ares, 14 days after application
Experimental: (§1) Herbicidal Effect Test by Soil Application in Paddy Rice
(§2) Wagner pots with an area of […] were filled with paddy soil, followed by addition of water and incorporation of chemical fertilizer (N:P:K=16:16:16), after which puddling was performed. After that, seeds of Echinochloa crus-galli var. formosensis, broad-leaved weeds (Lindernia pyxidaria and Monochoria vaginalis), and Scirpus juncoides were sown at a depth of 0 cm to 1 cm, 30 seeds each. Immediately after sowing, the pots were flooded and a water depth of approximately 3 cm was maintained. Subsequent management was conducted in a glass greenhouse. Immediately thereafter, an emulsifiable concentrate prepared according to Formulation Example 5 using the compound shown below was diluted with water, and a specified amount of the diluted solution was applied by dropper. The amount of the active ingredient to be applied was equivalent to 120 g per 10 ares.
(§3) The present test was conducted in duplicate for each chemical concentration group, and the weed inhibition rate (%) was determined 14 days after chemical application using the following formula (Math. 1).

Monochoria vaginalis [2] = assay: as above; settings: 120 g per 10 ares, 14 days after application
Experimental: as §1, §2, §3

Scirpus juncoides [3] = assay: as above; settings: 120 g per 10 ares, 14 days after application
Experimental: as §1, §2, §3

Echinochloa crus-galli [4] = assay: Test Example 3: herbicidal effect test by soil application in upland field; settings: 1 day after sowing, 120 g per 10 ares, 14 days after application
Experimental: (§4) Herbicidal Effect Test by Soil Application in Upland Field
(§5) Pots with an area of 36 cm^2 were filled with upland soil (alluvial loam), twenty seeds each of weeds of Digitaria ciliaris, Echinochloa crus-galli, Chenopodium album, and Amaranthus viridis were uniformly mixed with the top 1 cm layer of soil and the surface was lightly pressed down. One day after sowing, an emulsifiable concentrate prepared according to Formulation Example 5 using the compound shown below was diluted with water, and the diluted solution was sprayed onto the soil surface at a rate of 100 liters per 10 ares. The amount of the active ingredient to be applied was equivalent to 120 g per 10 ares. Fourteen days after chemical application, the herbicidal effect was evaluated according to the same criteria as in Test Example 1.

Digitaria ciliaris [5] = assay: as above; settings: 1 day after sowing, 120 g per 10 ares, 14 days after application
Experimental: as §4, §5

[6] = system: Echinochloa crus-galli var. formosensis; assay: Test Example 6: herbicidal effect test by application during growth period of paddy rice; settings: 7 days after sowing, 7.5 g per 10 ares, 14 days after application
Experimental: (§6) Herbicidal Effect Test by Application During Growth Period of Paddy Rice
as §2, with “(Lindemia pyxidaria,” for “(Lindernia pyxidaria”, “Seven days after sowing,” for “Immediately thereafter,”, “7.5” for “120”, “ares. The test was conducted in duplicate for each chemical concentration group, and the herbicidal effect was evaluated 14 days after chemical application using the same criteria as in Test Example 1.” for “ares.”

[7] = system: Echinochloa crus-galli var. formosensis; assay: Test Example 2: herbicidal effect test by application during growth period of paddy rice; settings: 7 days after sowing, 120 g per 10 ares, 14 days after application
Experimental: as §6
as §2, with “(Lindemia pyxidaria,” for “(Lindernia pyxidaria”, “Seven days after sowing,” for “Immediately thereafter,”, “ares. The test was conducted in duplicate for each chemical concentration group, and the herbicidal effect was evaluated 14 days after chemical application using the same criteria as in Test Example 1.” for “ares.”

Monochoria vaginalis [8] = assay: as above; settings: 7 days after sowing, 120 g per 10 ares, 14 days after application
Experimental: as §6
as §2, with “(Lindemia pyxidaria,” for “(Lindernia pyxidaria”, “Seven days after sowing,” for “Immediately thereafter,”, “ares. The test was conducted in duplicate for each chemical concentration group, and the herbicidal effect was evaluated 14 days after chemical application using the same criteria as in Test Example 1.” for “ares.”

Scirpus juncoides [9] = assay: as above; settings: 7 days after sowing, 120 g per 10 ares, 14 days after application
Experimental: as §6
as §2, with “(Lindemia pyxidaria,” for “(Lindernia pyxidaria”, “Seven days after sowing,” for “Immediately thereafter,”, “ares. The test was conducted in duplicate for each chemical concentration group, and the herbicidal effect was evaluated 14 days after chemical application using the same criteria as in Test Example 1.” for “ares.”

[10] = system: Echinochloa crus-galli var. formosensis; assay: Test Example 5: herbicidal effect test by soil application in paddy rice; settings: 7.5 g per 10 ares, 14 days after application
Experimental: as §1
as §2, with “(Lindemia pyxidaria,” for “(Lindernia pyxidaria”, “7.5” for “120”
(§7) The present test was conducted in duplicate for each chemical concentration group, and the herbicidal effect was evaluated 14 days after chemical application using the same criteria as in Test Example 1.

Echinochloa crus-galli [11] = assay: Test Example 7: herbicidal effect test by soil application in upland field; settings: 1 day after sowing, 7.5 g per 10 ares, 14 days after application
Experimental: as §4
as §5, with “7.5” for “120”

Digitaria ciliaris [12] = assay: as above; settings: 1 day after sowing, 7.5 g per 10 ares, 14 days after application
Experimental: as §4
as §5, with “7.5” for “120”

Echinochloa crus-galli [13] = assay: Test Example 8: herbicidal effect test by stem and leaf treatment in upland field; settings: 7 days after sowing, 7.5 g per 10 ares, 14 days after application
Experimental: (§8) Herbicidal Effect Test by Stem and Leaf Treatment in Upland Field
as §5, with “Seven days” for “One day”, “7.5” for “120”

Digitaria ciliaris [14] = assay: as above; settings: 7 days after sowing, 7.5 g per 10 ares, 14 days after application; for inhibition at 75 g/ha: Digitaria ciliaris, read-out: weed inhibition rate
Experimental: as §8
as §5, with “Seven days” for “One day”, “7.5” for “120”

Echinochloa crus-galli [15] = assay: Test Example 4: herbicidal effect test by stem and leaf treatment in upland field; settings: 7 days after sowing, 120 g per 10 ares, 14 days after application
Experimental: as §8
as §5, with “Seven days” for “One day”

Digitaria ciliaris [16] = assay: as above; settings: 7 days after sowing, 120 g per 10 ares, 14 days after application
Experimental: as §8
as §5, with “Seven days” for “One day”

Monochoria vaginalis [17] = assay: Test Example 6: herbicidal effect test by application during growth period of paddy rice; settings: 7 days after sowing, 7.5 g per 10 ares, 14 days after application
Experimental: as §6
as §2, with “(Lindemia pyxidaria,” for “(Lindernia pyxidaria”, “Seven days after sowing,” for “Immediately thereafter,”, “7.5” for “120”, “ares. The test was conducted in duplicate for each chemical concentration group, and the herbicidal effect was evaluated 14 days after chemical application using the same criteria as in Test Example 1.” for “ares.”

Monochoria vaginalis [18] = assay: Test Example 5: herbicidal effect test by soil application in paddy rice; settings: 7.5 g per 10 ares, 14 days after application
Experimental: as §1
as §2, with “(Lindemia pyxidaria,” for “(Lindernia pyxidaria”, “7.5” for “120”
as §7

Scirpus juncoides [19] = assay: as above; settings: 7.5 g per 10 ares, 14 days after application
Experimental: as §1
as §2, with “(Lindemia pyxidaria,” for “(Lindernia pyxidaria”, “7.5” for “120”
as §7

[20] = Echinochloa crus-galli, read-out: weed inhibition rate
[21] = Digitaria ciliaris, read-out: weed inhibition rate

CC(C)[C@]12C[C@@H](OCc3ccccc3F)[C@](C)(C[C@@H]1Cl)O2 [1-12]
≥ 80%: weed inhibition rate [1] | weed inhibition rate (Monochoria vaginalis [2]) | weed inhibition rate (Scirpus juncoides [3]) | weed inhibition rate (Echinochloa crus-galli [4]) | weed inhibition rate (Digitaria ciliaris [5]) | weed inhibition rate [6] | weed inhibition rate [7] | weed inhibition rate (Monochoria vaginalis [8]) | weed inhibition rate (Scirpus juncoides [9]) | weed inhibition rate [10] | weed inhibition rate (Echinochloa crus-galli [11]) | weed inhibition rate (Digitaria ciliaris [12]) | weed inhibition rate (Echinochloa crus-galli [13]) | weed inhibition rate (Digitaria ciliaris [14]) | weed inhibition rate (Echinochloa crus-galli [15]) | weed inhibition rate (Digitaria ciliaris [16])

CC(C)C1C[C@]2(C)O[C@@]1(C(C)C)C[C@H]2OCc1ccccc1F (stereo partly drawn) [1-133, (1S,2R,4R)-2-[(2-fluorobenzyl)oxy]-4,5-isopropyl-1-methyl-7-oxabicyclo[2.2.1]heptane]
≥ 80%: weed inhibition rate [1] | weed inhibition rate (Monochoria vaginalis [2]) | weed inhibition rate (Scirpus juncoides [3]) | weed inhibition rate (Echinochloa crus-galli [4]) | weed inhibition rate (Digitaria ciliaris [5]) | weed inhibition rate [6] | weed inhibition rate (Monochoria vaginalis [17]) | weed inhibition rate [7] | weed inhibition rate (Monochoria vaginalis [8]) | weed inhibition rate (Scirpus juncoides [9]) | weed inhibition rate [10] | weed inhibition rate (Monochoria vaginalis [18]) | weed inhibition rate (Scirpus juncoides [19]) | weed inhibition rate (Echinochloa crus-galli [11]) | weed inhibition rate (Digitaria ciliaris [12]) | weed inhibition rate (Echinochloa crus-galli [13]) | weed inhibition rate (Echinochloa crus-galli [15]) | weed inhibition rate (Digitaria ciliaris [16])

CC(C)[C@]12C[C@@H](OCc3ccccc3C(F)(F)F)[C@](C)(C[C@@H]1Br)O2 [1-700, (1S,2R,4R,5S)-5-bromo-1-methyl-4-isopropyl-2-[[2-(trifluoromethyl)phenyl]methoxy]-7-oxabicyclo[2.2.1]heptane]
≥ 80%: inhibition at 75 g/ha (Digitaria ciliaris [14])

CC(C)[C@]12C[C@@H](OCc3ccccn3)[C@](C)(C[C@@H]1I)O2 [1-785, 2-[[(1S,2R,4R,5S)-5-iodo-4-isopropyl-1-methyl-7-oxabicyclo[2.2.1]heptan-2-yl]oxymethyl]pyridine]
≥ 80%: inhibition at 75 g/ha [6, 20] | inhibition at 1200 g/ha [7, 20] | inhibition at 1200 g/ha (Scirpus juncoides [9]; Schoenoplectiella juncoides, read-out: weed inhibition rate) | inhibition at 75 g/ha ([10]; Echinochloa crus-galli, 336 h, read-out: weed inhibition rate) | inhibition at 75 g/ha (Echinochloa crus-galli [11]; [20]) | inhibition at 75 g/ha (Digitaria ciliaris [12]; [21]) | inhibition at 75 g/ha (Echinochloa crus-galli [13]; [20]) | inhibition at 75 g/ha (Digitaria ciliaris [14]) | inhibition at 1200 g/ha (Echinochloa crus-galli [15]; [20]) | inhibition at 1200 g/ha (Digitaria ciliaris [16]; [21])

CC(=O)O[C@@H]1C[C@]2(C)O[C@@]1(C(C)C)C[C@H]2OCc1ccccc1F [1-932, [(1R,2R,4S,5R)-5-[(2-fluorophenyl)methoxy]-4-methyl-1-isopropyl-7-oxabicyclo[2.2.1]heptan-2-yl]acetate]
≥ 80%: weed inhibition rate [1] | weed inhibition rate [6] | weed inhibition rate [7] | weed inhibition rate [10]

CC(C)[C@]12C[C@@H](OCc3ccccc3F)[C@](C)(C=C1OS(=O)(=O)C(F)(F)F)O2 [3-680]
≥ 80%: weed inhibition rate [1] | weed inhibition rate (Scirpus juncoides [3]) | weed inhibition rate (Echinochloa crus-galli [4]) | weed inhibition rate (Digitaria ciliaris [5]) | weed inhibition rate [6] | weed inhibition rate [7] | weed inhibition rate (Scirpus juncoides [9]) | weed inhibition rate [10] | weed inhibition rate (Echinochloa crus-galli [11]) | weed inhibition rate (Digitaria ciliaris [12]) | weed inhibition rate (Echinochloa crus-galli [13]) | weed inhibition rate (Digitaria ciliaris [14]) | weed inhibition rate (Echinochloa crus-galli [15]) | weed inhibition rate (Digitaria ciliaris [16])
